Earlier results on one substance are cited in US4127529A, “Novel eicosapeptides, intermediates therefor and pharmaceutical compositions and methods employing said eicosapeptides” (priority 1977, dated 1978).

For data set [1] the following is noted: injected directly into the brain of the rat.
Data set [2] concerns brain opiate receptor sites. The settings on record: natural peptide.

“H-Tyr-Gly-Gly-Phe-Met-OH [methionine enkephalin]”: the analgesic activity entry in data set [1] was “only weak analgesic agent of short duration”. In addition, the “binding to partially purified brain opiate receptor sites” value in data set [2] was “binds stereo-specifically”.
